Positions of bridges follow the written chain, without caps; N, C: chain ends. Non-standard residues stand in square brackets, D forms with d. Residues, ends and D or L forms follow the SMILES beside them. Bip(4'-COOH) = N[C@@H](Cc1ccc(-c2ccc(C(=O)O)cc2)cc1)C(=O)O; Bip(4'-NHAc) = CC(=O)Nc1ccc(-c2ccc(C[C@H](N)C(=O)O)cc2)cc1; Ala(morpholin-4-yl) = N[C@@H](CN1CCOCC1)C(=O)O; Bip = N[C@@H](Cc1ccc(-c2ccccc2)cc1)C(=O)O; Sar = CNCC(=O)O Where only a bound is given, the exact number is not on record here.

The text below walks through data of patent US20250145665A1, “MACROCYCLIC PEPTIDES USEFUL AS MODULATORS OF TNF ALPHA” (Bristol-Myers Squibb Company, priority 2023, published 2025).

This experiment deals with TNFα (Homo sapiens, UniProt P01375). Nature of the experiment: TNF-Induced HEK-Blue Assay. The class given is cell-based. Conditions: HEK-Blue-CD40L cells, NF-kB-driven secreted alkaline phosphatase reporter; TNFα 0.5 ng/ml; 18 h; read-out: TNF induced HEK-Blue assay IC50 value.
Chain of TNFα (P01375 77-233 limits assumed): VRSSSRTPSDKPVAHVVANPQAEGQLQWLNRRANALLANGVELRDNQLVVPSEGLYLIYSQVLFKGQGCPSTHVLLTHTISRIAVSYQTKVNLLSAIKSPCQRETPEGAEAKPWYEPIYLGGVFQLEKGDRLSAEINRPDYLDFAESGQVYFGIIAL
Regarding `CC(C)C[C@@H]1NC(=O)[C@H](CCCNC(=N)N)NC(=O)[C@H](C(C)C)NC(=O)[C@@H]2CCCN2C(=O)[C@H](C(C)C)NC(=O)[C@@H](CCCNC(=N)N)NC(=O)[C@H](CC(=O)O)NC(=O)[C@@H]2CCCN2C(=O)CN(C)C(=O)[C@H](Cc2ccc(-c3ccccc3)cc2)NC(=O)[C@H](Cc2ccc(-c3ccc(C(=O)O)cc3)cc2)NC(=O)[C@H](CN2CCOCC2)NC(=O)CSC[C@@H](C(=O)NCC(N)=O)NC1=O` [Example 123] ({CH2CO}-[Ala(morpholin-4-yl)][Bip(4'-COOH)][Bip][Sar]PD[dR]VPVRLCG-NH2; thioether N-13), the IC50 – broadly, the point on the concentration scale where inhibition reaches its midpoint – lay within 50 to 200 nM.
For the compound `CC(C)C[C@@H]1NC(=O)[C@H](Cc2ccc(O)cc2)NC(=O)[C@H](C(C)C)NC(=O)[C@@H]2CCCN2C(=O)[C@H](C(C)C)NC(=O)[C@H](CCCNC(=N)N)NC(=O)[C@H](CC(=O)O)NC(=O)[C@@H]2CCCN2C(=O)CN(C)C(=O)[C@H](Cc2ccc(-c3ccccc3)cc2)NC(=O)[C@H](Cc2ccc(-c3ccc(C(=O)O)cc3)cc2)NC(=O)[C@H](CN2CCOCC2)NC(=O)CSC[C@@H](C(=O)NCC(N)=O)NC1=O` [Example 124] ({CH2CO}-[Ala(morpholin-4-yl)][Bip(4'-COOH)][Bip][Sar]PDRVPVYLCG-NH2; thioether N-13), the IC50 was in the range of 50 to 200 nM.
Consider `CC(=O)Nc1ccc(-c2ccc(C[C@@H]3NC(=O)[C@H](Cc4ccc(-c5ccccc5)cc4)NC(=O)[C@H](CN4CCOCC4)NC(=O)CSC[C@@H](C(=O)NCC(N)=O)NC(=O)[C@H](CC(C)C)NC(=O)[C@H](Cc4ccc(O)cc4)NC(=O)[C@H](C(C)C)NC(=O)[C@@H]4CCCN4C(=O)[C@H](C(C)C)NC(=O)[C@@H](CCCNC(=N)N)NC(=O)[C@H](CC(=O)O)NC(=O)[C@@H]4CCCN4C(=O)CN(C)C3=O)cc2)cc1` [Example 125] ({CH2CO}-[Ala(morpholin-4-yl)][Bip][Bip(4'-NHAc)][Sar]PD[dR]VPVYLCG-NH2; thioether N-13), for which the IC50 was less than 50 nM.
To `CC(=O)Nc1ccc(-c2ccc(C[C@@H]3NC(=O)[C@H](Cc4ccc(-c5ccccc5)cc4)NC(=O)[C@H](CN4CCOCC4)NC(=O)CSC[C@@H](C(=O)NCC(N)=O)NC(=O)[C@H](CC(C)C)NC(=O)[C@H](CCCNC(=N)N)NC(=O)[C@H](C(C)C)NC(=O)[C@@H]4CCCN4C(=O)[C@H](C(C)C)NC(=O)[C@H](CCCNC(=N)N)NC(=O)[C@H](CC(=O)O)NC(=O)[C@@H]4CCCN4C(=O)CN(C)C3=O)cc2)cc1` [Example 126] ({CH2CO}-[Ala(morpholin-4-yl)][Bip][Bip(4'-NHAc)][Sar]PDRVPVRLCG-NH2; thioether N-13) belongs 50 to 200 nM.
For `CC(=O)Nc1ccc(-c2ccc(C[C@@H]3NC(=O)[C@H](Cc4ccc(-c5ccccc5)cc4)NC(=O)[C@H](CN4CCOCC4)NC(=O)CSC[C@@H](C(=O)NCC(N)=O)NC(=O)[C@H](CC(C)C)NC(=O)[C@H](CCCNC(=N)N)NC(=O)[C@H](C(C)C)NC(=O)[C@@H]4CCCN4C(=O)[C@H](Cc4ccc(O)cc4)NC(=O)[C@H](CCCNC(=N)N)NC(=O)[C@H](CC(=O)O)NC(=O)[C@@H]4CCCN4C(=O)CN(C)C3=O)cc2)cc1` [Example 127] ({CH2CO}-[Ala(morpholin-4-yl)][Bip][Bip(4'-NHAc)][Sar]PDRYPVRLCG-NH2; thioether N-13), the IC50 was 50 to 200 nM.
For `CC(=O)Nc1ccc(-c2ccc(C[C@@H]3NC(=O)[C@H](Cc4ccc(-c5ccccc5)cc4)NC(=O)[C@H](CN4CCOCC4)NC(=O)CSC[C@@H](C(=O)NCC(N)=O)NC(=O)[C@H](CC(C)C)NC(=O)[C@H](CCCNC(=N)N)NC(=O)[C@H](C(C)C)NC(=O)[C@@H]4CCCN4C(=O)[C@H](C(C)C)NC(=O)[C@@H](CCCNC(=N)N)NC(=O)[C@H](CC(=O)O)NC(=O)[C@@H]4CCCN4C(=O)CN(C)C3=O)cc2)cc1` [Example 128] ({CH2CO}-[Ala(morpholin-4-yl)][Bip][Bip(4'-NHAc)][Sar]PD[dR]VPVRLCG-NH2; thioether N-13), the IC50 was less than 50 nM.
`CC(C)C[C@@H]1NC(=O)[C@H](Cc2ccc(O)cc2)NC(=O)[C@H](C(C)C)NC(=O)[C@@H]2CCCN2C(=O)[C@H](C(C)C)NC(=O)[C@@H](CCCNC(=N)N)NC(=O)[C@H](CC(=O)O)NC(=O)[C@@H]2CCCN2C(=O)CNC(=O)[C@H](Cc2ccc(-c3ccccc3)cc2)NC(=O)[C@H](Cc2ccc(-c3ccccc3)cc2)NC(=O)[C@H](CN2CCOCC2)NC(=O)CSC[C@@H](C(=O)NCC(N)=O)NC1=O` [Example 129] ({CH2CO}-[Ala(morpholin-4-yl)][Bip][Bip]GPD[dR]VPVYLCG-NH2; thioether N-13): the IC50 is 200 to 2000 nM.
Regarding `CC(C)C[C@@H]1NC(=O)[C@H](CCCNC(=N)N)NC(=O)[C@H](C(C)C)NC(=O)[C@@H]2CCCN2C(=O)[C@H](C(C)C)NC(=O)[C@@H](CCCNC(=N)N)NC(=O)[C@H](CC(=O)O)NC(=O)[C@@H]2CCCN2C(=O)CNC(=O)[C@H](Cc2ccc(-c3ccccc3)cc2)NC(=O)[C@H](Cc2ccc(-c3ccccc3)cc2)NC(=O)[C@H](CN2CCOCC2)NC(=O)CSC[C@@H](C(=O)NCC(N)=O)NC1=O` [Example 130] ({CH2CO}-[Ala(morpholin-4-yl)][Bip][Bip]GPD[dR]VPVRLCG-NH2; thioether N-13), the IC50 lay in the range of 200 to 2000 nM.
As to `CC(C)C[C@@H]1NC(=O)[C@H](Cc2ccc(O)cc2)NC(=O)[C@H](C(C)C)NC(=O)[C@@H]2CCCN2C(=O)[C@H](C(C)C)NC(=O)[C@@H](CCCNC(=N)N)NC(=O)[C@H](CC(=O)O)NC(=O)[C@H](Cc2ccc(O)cc2)NC(=O)CNC(=O)[C@H](Cc2ccc(-c3ccccc3)cc2)NC(=O)[C@H](Cc2ccc(-c3ccccc3)cc2)NC(=O)[C@H](CN2CCOCC2)NC(=O)CSC[C@@H](C(=O)NCC(N)=O)NC1=O` [Example 131] ({CH2CO}-[Ala(morpholin-4-yl)][Bip][Bip]GYD[dR]VPVYLCG-NH2; thioether N-13), the IC50 lay within 50 to 200 nM.
To `CC(C)C[C@@H]1NC(=O)[C@H](CCCNC(=N)N)NC(=O)[C@H](C(C)C)NC(=O)[C@@H]2CCCN2C(=O)[C@H](C(C)C)NC(=O)[C@@H](CCCNC(=N)N)NC(=O)[C@H](CC(=O)O)NC(=O)[C@H](Cc2ccc(O)cc2)NC(=O)CNC(=O)[C@H](Cc2ccc(-c3ccccc3)cc2)NC(=O)[C@H](Cc2ccc(-c3ccccc3)cc2)NC(=O)[C@H](CN2CCOCC2)NC(=O)CSC[C@@H](C(=O)NCC(N)=O)NC1=O` [Example 132] ({CH2CO}-[Ala(morpholin-4-yl)][Bip][Bip]GYD[dR]VPVRLCG-NH2; thioether N-13) belongs 50 to 200 nM; to `CC(C)C[C@@H]1NC(=O)[C@H](Cc2ccc(O)cc2)NC(=O)[C@H](C(C)C)NC(=O)[C@@H]2CCCN2C(=O)[C@H](C(C)C)NC(=O)[C@H](CCCNC(=N)N)NC(=O)[C@H](CC(N)=O)NC(=O)[C@@H]2CCCN2C(=O)CN(C)C(=O)[C@H](Cc2ccc(-c3ccccc3)cc2)NC(=O)[C@H](Cc2ccc(-c3ccccc3)cc2)NC(=O)[C@H](CN2CCOCC2)NC(=O)CSC[C@@H](C(=O)NCC(N)=O)NC1=O` [Example 133] ({CH2CO}-[Ala(morpholin-4-yl)][Bip][Bip][Sar]PNRVPVYLCG-NH2; thioether N-13), 200 to 2000 nM; to `CC(C)C[C@@H]1NC(=O)[C@H](Cc2ccc(O)cc2)NC(=O)[C@H](C(C)C)NC(=O)CN(C)C(=O)[C@H](C(C)C)NC(=O)[C@@H](CCCNC(=N)N)NC(=O)[C@H](CC(=O)O)NC(=O)[C@H](Cc2ccc(O)cc2)NC(=O)CN(C)C(=O)[C@H](Cc2ccc(-c3ccccc3)cc2)NC(=O)[C@H](Cc2ccc(-c3ccccc3)cc2)NC(=O)[C@H](CN2CCOCC2)NC(=O)CSC[C@@H](C(=O)NCC(N)=O)NC1=O` [Example 134] ({CH2CO}-[Ala(morpholin-4-yl)][Bip][Bip][Sar]YD[dR]V[Sar]VYLCG-NH2; thioether N-13), 50 to 200 nM.
Take `CC(C)C[C@@H]1NC(=O)[C@H](CCCNC(=N)N)NC(=O)[C@H](C(C)C)NC(=O)CN(C)C(=O)[C@H](C(C)C)NC(=O)[C@@H](CCCNC(=N)N)NC(=O)[C@H](CC(=O)O)NC(=O)[C@H](Cc2ccc(O)cc2)NC(=O)CN(C)C(=O)[C@H](Cc2ccc(-c3ccccc3)cc2)NC(=O)[C@H](Cc2ccc(-c3ccccc3)cc2)NC(=O)[C@H](CN2CCOCC2)NC(=O)CSC[C@@H](C(=O)NCC(N)=O)NC1=O` [Example 135] ({CH2CO}-[Ala(morpholin-4-yl)][Bip][Bip][Sar]YD[dR]V[Sar]VRLCG-NH2; thioether N-13): the IC50 fell in the range of 200 to 2000 nM.
For `CC(C)C[C@@H]1NC(=O)[C@H](Cc2ccc(O)cc2)NC(=O)[C@H](C(C)C)NC(=O)CN(C)C(=O)[C@H](C(C)C)NC(=O)[C@@H](CCCNC(=N)N)NC(=O)[C@H](CC(=O)O)NC(=O)[C@@H]2CCCN2C(=O)CN(C)C(=O)[C@H](Cc2ccc(-c3ccccc3)cc2)NC(=O)[C@H](Cc2ccc(-c3ccccc3)cc2)NC(=O)[C@H](CN2CCOCC2)NC(=O)CSC[C@@H](C(=O)NCC(N)=O)NC1=O` [Example 136] ({CH2CO}-[Ala(morpholin-4-yl)][Bip][Bip][Sar]PD[dR]V[Sar]VYLCG-NH2; thioether N-13) the value was 50 to 200 nM; for `CC(C)C[C@@H]1NC(=O)[C@H](Cc2ccc(O)cc2)NC(=O)[C@H](C(C)C)NC(=O)CNC(=O)[C@H](C(C)C)NC(=O)[C@@H](CCCNC(=N)N)NC(=O)[C@H](CC(=O)O)NC(=O)[C@H](Cc2ccc(O)cc2)NC(=O)CN(C)C(=O)[C@H](Cc2ccc(-c3ccccc3)cc2)NC(=O)[C@H](Cc2ccc(-c3ccccc3)cc2)NC(=O)[C@H](CN2CCOCC2)NC(=O)CSC[C@@H](C(=O)NCC(N)=O)NC1=O` [Example 137] ({CH2CO}-[Ala(morpholin-4-yl)][Bip][Bip][Sar]YD[dR]VGVYLCG-NH2; thioether N-13), 200 to 2000 nM; for `CC(C)C[C@@H]1NC(=O)[C@H](CCCNC(=N)N)NC(=O)[C@H](C(C)C)NC(=O)CNC(=O)[C@H](C(C)C)NC(=O)[C@H](CCCNC(=N)N)NC(=O)[C@H](CC(=O)O)NC(=O)[C@H](Cc2ccc(O)cc2)NC(=O)CN(C)C(=O)[C@H](Cc2ccc(-c3ccccc3)cc2)NC(=O)[C@H](Cc2ccc(-c3ccccc3)cc2)NC(=O)[C@H](CN2CCOCC2)NC(=O)CSC[C@@H](C(=O)NCC(N)=O)NC1=O` [Example 138] ({CH2CO}-[Ala(morpholin-4-yl)][Bip][Bip][Sar]YDRVGVRLCG-NH2; thioether N-13), 200 to 2000 nM.
